ChEMBL document CHEMBL1130656, “Thyrotropin releasing hormone analogs: a building block approach to the construction of tetracyclic peptidomimetics” (Bioorg Med Chem Lett, 1998)
Non-standard residues stand in square brackets, D forms with d. Residues, ends and D or L forms follow the SMILES beside them. Cha = N[C@@H](CC1CCCCC1)C(=O)O; pGlu = O=C1CC[C@@H](C(=O)O)N1

What was measured:
[1] = target: T1, Thyrotropin-releasing hormone receptor (Mus musculus, UniProt P21761); assay: Ability to bind thyroliberin endocrine receptor (TRH-R) using AtT-20 mouse pituitary tumor cells.
T1 sequence (P21761 whole entry): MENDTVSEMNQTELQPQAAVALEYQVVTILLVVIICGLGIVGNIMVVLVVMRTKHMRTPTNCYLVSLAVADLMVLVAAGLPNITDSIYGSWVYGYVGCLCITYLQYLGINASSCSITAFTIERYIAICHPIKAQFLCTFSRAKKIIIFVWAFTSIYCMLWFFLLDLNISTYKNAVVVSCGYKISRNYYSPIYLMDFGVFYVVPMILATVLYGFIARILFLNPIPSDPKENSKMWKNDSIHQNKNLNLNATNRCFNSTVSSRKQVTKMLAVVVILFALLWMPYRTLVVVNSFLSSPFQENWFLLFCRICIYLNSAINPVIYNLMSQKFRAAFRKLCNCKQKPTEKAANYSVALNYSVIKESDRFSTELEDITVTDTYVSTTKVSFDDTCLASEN

[2] = target: T1, Thyrotropin-releasing hormone receptor; assay: Ability to activate thyroliberin endocrine receptor (TRH-R) using AtT-20 mouse pituitary tumor cells prelabelled with myo-[3H] inositol

| Ki [1] | EC50 [2] | SMILES |
| --- | --- | --- |
| 6500 nM | 430 nM | NC(=O)[C@@H]1CCCN1C(=O)[C@H](CC1CCCCC1)NC(=O)[C@@H]1CCC(=O)N1 ([pGlu]-[Cha]-Pro-NH2) |
| 1500 nM | 1800 nM | NC(=O)[C@@H]1CCC2CC(C3CCCCC3)=C(N3CC[C@]4(CCC(=O)N4)C3=O)C(=O)N21 (single isomer, unassigned; 2a) |
| 36000 nM | 18000 nM | NC(=O)[C@@H]1CCC2CC(C3CCCCC3)=C(N3CC[C@]4(CCC(=O)N4)C3=O)C(=O)N21 (single isomer, unassigned; 2b) |
| 23 nM | 0.49 nM | NC(=O)[C@@H]1CCCN1C(=O)[C@H](Cc1cnc[nH]1)NC(=O)[C@@H]1CCC(=O)N1 [PROTIRELIN] |
